Source: patent US10450317B2, “Notch pathway signaling inhibitor compounds” (Eli Lilly and Company, priority 2015, dated 2019)
Values joined by “and” are separate entries in the source; they are usually repeats but may differ in a detail not shown here. Identical values can stand only once.

What was measured:
HEK293ΔE12 cells = assay: Relative cytotoxicity profiling (% cell number) in the N1ICD imaging assay; type: cell-based, human; settings: up to 1000 nM concentration, 24 hours treatment
Method: HEK293ΔE12 cells (HEK293 cells are engineered to stably express mouse Notch1 cDNA coding for amino acid 1703-2183, Np_932740.3, (Full length mouse Notch 1 protein precursor: SEQ ID NO:1) with 23 amino acid signal peptide sequence, […] (SEQ ID NO:2), at its N-terminus) are plated at 5000 cells/well in 96 well plates, incubated in Dulbecco's Modified. Eagle's Medium (DMEM)-high glucose with 5% fetal bovine serum (FBS) at 37° C., 5% CO2 for 24 hours. Cells are treated with test compound, dosing at 10 points of 1:3 dilutions across the range of 1000 nM to 0.05 nM, and with final dimethyl sulfoxide (DMSO) concentration at 0.2%. […] Plates are scanned with ACUMEN EXPLORER™ Laser-scanning fluorescence microplate cytometer (TTP LABTECH LTD) to measure total cell nuclear count/well and total nuclear area/well with fluorescence at 655 nm-705 nm (emission of DNA bound propidium iodide) and fluorescence of antibody binding to N1ICD in nuclear region at 505 nm-530 nm. The main assay output is a ratio of total fluorescence of nuclear N1ICD to total nuclear area, the normalized nuclear N1ICD signal. […] Concentration response and the IC50 are determined by curve fitting to a four parameter logistic for the nuclear N1ICD signal, while the % cell number is plotted in the same graph for cytotoxicity profiling.

cleaved Notch1 (N1ICD) = assay: In-vivo target inhibition study, cleaved N1ICD in lung by ELISA; design: species or system Balb/C mice; settings: mouse lung
Method: To evaluate in vivo effect of Compound 1, Isomer 2 and. Compound 2, Isomer 2 on inhibition of Notch processing pharmacodynamics (PD), animal studies were conducted in non-tumor bearing Balb/C mice (Charles River). A total of 5 mice are used for each group. Mice are fed ad libitum on normal chow. Treatment is initiated with oral administration (gavage) of compound or vehicle (1% Na-CMC in 0.25% Tween-80) in 0.2 mL volume. At designated time points (4 or 8 hours after the dose) following treatment, animals are sacrificed by CO2 asphyxiation and cervical dislocation. Tissues (Lungs) are removed and used for PD response analysis as measured by cleaved N1ICD.
To evaluate N1ICD levels in lung, approximately 75 mg is cut from the frozen tissue and minced prior to homogenization (actual mass recorded). […] are transferred to Lysing Matrix-D™ tubes and re-suspended in ice-cold XY lysis buffer (25 mM Tris pH 7.5, 10 μg/ml Trypsin/Chymotrypsin inhibitor, 10 μg/ml Aprotinin, 60 mM Beta-glycerol phosphate, 1% Triton® X-100, 10 mM NaF, 2.5 mM pyrophosphate, 150 mM NaCl, 15 mM ethylene diamine tetra acetic acid (EDTA) pH 8.0, 5 mM ethylene glycol-bis(2-aminoethylether)-N,N,N′,N′-tetra acetic acid (EGTA) pH 8.0, 1 mM Na Vanadate, 10 μg/ml Leupeptin, 1 mM dithiothreitol, 1 μM microcystin LR, 10 μg/ml N-p-tosyl-L-phenylalanine chloromethyl ketone (TPCK), 2 mM Nα-p-tosyl-L-arginine methyl ester hydrochloride (TAME), 15 mM 4-nitrophenyl phosphate di(tris) salt (PNPP), 0.1 mM 4-(2-aminoethyl) benzenesulfonyl fluoride hydrochloride (AEBSF), 5 mM benzamidine, 1 μM Okadaic Acid) containing 1× Complete tablet (Roche Complete™ No. 11697 498 001) and 1× Protease Inhibitor cocktail (Sigma-Aldrich P8340) at a mass: volume ratio of 75 mg/ml buffer. Tissues are homogenized in a Fast Prep FP120 homogenizer (Thermo Scientific, Rockford, Ill.) at a speed of 6.0 for 30 seconds at 4° C., followed by 15 minute incubation on ice. This is repeated for a total of 2-3 cycles until homogenization is complete. Lysates are spun in a 4° C. eppendorf centrifuge at 30,000 rpm for 15 minutes to remove debris. 400 μl of supernatant is removed and transferred to a new eppendorf tube and subjected to a freeze/thaw cycle. Samples are re-spun in a 4° C. eppendorf centrifuge at 30,000 rpm for 30 minutes and 120 μl of supernatant is collected for analysis. Total protein concentration is determined using Pierce BCA Protein Assay Kit™ (Thermo Scientific, Rockford, Ill.) using a Thermomax™ plate reader (Molecular Devices, Sunnyvale, Calif.). N1ICD levels are determined using a custom N1ICD ELISA. Analyte is captured with a cleaved Notch1 (Val1744)-specific custom rabbit monoclonal antibody and detected with a C-terminal Notch1 SULFO-TAG™ (Meso Scale Discovery, Gaithersburg, Md.) polyclonal sheep antibody (R&D Systems, Minneapolis, Minn.). Lysates are diluted to 2 μg/μl in ice-cold ELISA tris lysis buffer (R6OTX) (Meso Scale Discovery, Gaithersburg, Md.) containing 1× Complete tablet (Roche Complete™ mini No. 11 836 153 001) and 1× Protease Inhibitor cocktail (Sigma-Aldrich P8340), and 25 μl is added to the ELISA plate. Incubation of 50 μg protein lysate is done at RT for one hour each to capture analyte and with detection antibody. Plates are read on a Sector Imager 6000™ (Meso Scale Discovery, Gaithersburg, Md.). Background subtracted N1ICD is normalized to total protein and presented as % inhibition relative to the vehicle-treated group. N1ICD % inhibition and statistical significance (p value) as measured by Dunett's method in tumors harvested 4 hours after last dose for Compound 1, Isomer 2 or Compound 2, Isomer 2 is analyzed essentially as described above and summarized in Table 1.

[1] = oral 10 mg/kg, 4 hours following treatment

| SMILES | effect on cell number (cytotoxicity profiling) (HEK293ΔE12 cells) | % N1ICD inhibition (Ave ± SD; n = 1) (cleaved Notch1 (N1ICD); oral 0.3 mg/kg, 8 hours following treatment) [%] | % N1ICD inhibition (Ave ± SD; n = 1) (cleaved Notch1 (N1ICD); oral 1 mg/kg, 8 hours following treatment) [%] | % N1ICD inhibition (Ave ± SD; n = 1) (cleaved Notch1 (N1ICD); oral 3 mg/kg, 8 hours following treatment) [%] | % N1ICD inhibition (Ave ± SD; n = 1) (cleaved Notch1 (N1ICD); [1]) [%] | % N1ICD inhibition (Ave ± SD; n = 1) (cleaved Notch1 (N1ICD); oral 10 mg/kg, 8 hours following treatment, listed as 1, Isomer 2, 10 mg/kg) | % N1ICD inhibition (Ave ± SD; n = 1) (cleaved Notch1 (N1ICD); oral 30 mg/kg, 8 hours following treatment) [%] | % N1ICD inhibition (Ave ± SD; n = 1) (cleaved Notch1 (N1ICD); oral 100 mg/kg, 8 hours following treatment) [%] | % N1ICD inhibition (Ave ± SD; n = 1) (cleaved Notch1 (N1ICD); oral 10 mg/kg, 8 hours following treatment) [%] |
| --- | --- | --- | --- | --- | --- | --- | --- | --- | --- |
| COc1ccc2c(c1)N1CCC(C)(C)C1=CC(=O)C2NC(=O)[C@H](C)NC(=O)CCC(F)(F)F (single isomer, unassigned) [Compound 1, Isomer 2] | Neither compound affects cell number | −7 ± 26 | 6 ± 15 | 11 ± 13 | 70 ± 12 | 52 ± 31% and 65 ± 11% | 87 ± 3 | 92 ± 3 | – |
| C[C@H](NC(=O)CCC(F)(F)F)C(=O)NC1C(=O)C=C2N(CCC2(C)C)c2ncccc21 (single isomer, unassigned) [Compound 2, Isomer 2] | Neither compound affects cell number | – | – | – | 65 ± 11 | – | – | – | 15 ± 14 |
